Data: patent publication US8829030B2 (priority 2002, dated 2014)
Structures can show the parent of a compound that is named as a salt. Where two headings read alike, the source gives them in different places.

Molecular target: recombinant HCV RNA-dependent RNA polymerase (NS5B protein) (Hepatitis C virus genotype 1b, UniProt P26663)
Experiment: biochemical
Design: species or system HCV-Bk strain
[1] = read-out: Activity (polymerase activity, IC50)

recombinant HCV RNA-dependent RNA polymerase (NS5B protein), sequence (P26663 2420-3010 limits assumed): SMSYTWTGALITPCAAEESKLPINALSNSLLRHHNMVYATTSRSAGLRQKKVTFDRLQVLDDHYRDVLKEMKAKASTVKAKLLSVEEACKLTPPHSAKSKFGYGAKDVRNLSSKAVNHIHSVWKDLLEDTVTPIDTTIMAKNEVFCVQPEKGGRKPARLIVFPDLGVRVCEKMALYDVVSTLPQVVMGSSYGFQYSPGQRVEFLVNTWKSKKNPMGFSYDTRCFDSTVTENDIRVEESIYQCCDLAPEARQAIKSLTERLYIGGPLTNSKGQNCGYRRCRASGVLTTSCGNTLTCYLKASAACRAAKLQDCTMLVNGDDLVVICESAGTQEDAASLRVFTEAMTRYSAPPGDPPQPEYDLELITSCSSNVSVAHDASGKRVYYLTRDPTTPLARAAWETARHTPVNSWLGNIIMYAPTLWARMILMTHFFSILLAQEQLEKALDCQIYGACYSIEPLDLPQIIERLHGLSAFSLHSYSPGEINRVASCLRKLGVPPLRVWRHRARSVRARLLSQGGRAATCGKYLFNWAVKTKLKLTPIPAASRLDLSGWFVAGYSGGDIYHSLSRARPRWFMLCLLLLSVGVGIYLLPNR

SMILES	IC50 [µM]	IC50 [1] [µM]
CC1CCC(C(=O)N(c2cc(-c3ccccc3)sc2C(=O)O)C2CCOCC2)C(O)C1 (stereo not shown) [Compound 31, 3-[(2-hydroxy-4-methyl-cyclohexanecarbonyl)-(tetrahydro-pyran-4-yl)-amino]-5-phenyl-thiophene-2-carboxylic acid]	< 5	–
CC1CCC(C(=O)N(c2cc(-c3ccccc3)sc2C(=O)O)C2CCN(C)C(=O)C2)CC1 (stereo not shown) [Compound 75, 3-[(4-methyl-cyclohexanecarbonyl)-(1-methyl-2-oxo-piperidin-4-yl)-amino]-5-phenyl-thiophene-2-carboxylic acid]	–	< 5
CC1CCC(C(=O)N(c2cc(-c3ccccc3)sc2C(=O)O)C(C)C)OC1 (stereo not drawn) [Compound 29, 3-[Isopropyl-(cis-5-methyl-tetrahydro-pyran-2-carbonyl)-amino]-5-phenyl-thiophene-2-carboxylic acid]	5 to 20	–
CC1CCC(C(=O)N(c2cc(-c3cccc(F)c3)sc2C(=O)O)C2CCC(O)CC2)CC1 (stereo not shown) [Compound 51, 5-(3-fluoro-phenyl)-3-[(4-hydroxy-cyclohexyl)-(4-methyl-cyclohexanecarbonyl)-amino]-thiophene-2-carboxylic acid]	< 5	–
CC1CCC(C(=O)N(c2cc(-c3ccccc3)sc2C(=O)O)[C@H]2CC[C@H](C(=O)O)CC2)CC1 (stereo partly shown) [Compound 76, 3-[(4-carboxy-cyclohexyl)-(4-methyl-cyclohexanecarbonyl)-amino]-5-phenyl-thiophene-2-carboxylic acid]	< 5	–
CCC(C)C(C[NH3+])N(C(=O)c1ccccc1Cl)c1cc(-c2ccccc2)sc1C(=O)O (stereo not shown) [Compound 19, 2-[(2-carboxy-5-phenyl-thiophen-3-yl)-(2-chloro-benzoyl)-amino]-3-methyl-pentyl-ammonium trifluoroacetate]	> 20	–
CNC(=O)N1CCC(N(C(=O)C2CCC(C)CC2)c2cc(-c3ccccc3)sc2C(=O)O)CC1 (stereo not shown) [Compound 71, 3-[(1-methylcarbamoyl-piperidin-4-yl)-(4-methyl-cyclohexanecarbonyl)-amino]-5-phenyl-thiophene-2-carboxylic acid]	< 5	–
CC1CCC(C(=O)N(c2cc(-c3ccc(Cl)cc3)sc2C(=O)O)C2CCC(O)CC2)CC1 (stereo not shown) [Compound 59, 5-(4-chloro-phenyl)-3-[(4-hydroxy-cyclohexyl)-(4-methyl-cyclohexanecarbonyl)-amino]-thiophene-2-carboxylic acid]	< 5	–
CC1CCC(C(=O)N(CC2CCN(C)CC2)c2cc(-c3ccccc3)sc2C(=O)O)CC1 (stereo not shown) [Compound 38, 4-{[(2-carboxy-5-phenyl-thiophen-3-yl)-(4-methyl-cyclohexanecarbonyl)-amino]-methyl}-1-methyl-piperidinium chloride]	< 5	–
CC1CCC(C(=O)N(c2cc(-c3ccccc3)sc2C(=O)O)C2CCNC(=O)CC2)CC1 (stereo not shown) [Compound 82, 3-[(4-methyl-cyclohexanecarbonyl)-(7-oxo-azepan-4-yl)-amino]-5-phenyl-thiophene-2-carboxylic acid]	–	< 5
CC(C)N(C(=O)C1=CC[C@H](C)CC1)c1cc(-c2ccc(F)cc2)sc1C(=O)O [Compound 26, (4R)-5-(4-Fluoro-phenyl)-3-[isopropyl-(4-methyl-cyclohex-1-enecarbonyl)-amino]-thiophene-2-carboxylic acid]	< 5	–
C[C@H]1CC[C@H](C(=O)N(c2cc(-c3ccc(F)c(F)c3)sc2C(=O)O)[C@H]2CC[C@H](O)CC2)CC1 [Compound 79, 5-(3,4-difluoro-phenyl)-3-[(4-hydroxy-cyclohexyl)-(4-methyl-cyclohexanecarbonyl)-amino]-thiophene-2-carboxylic acid]	< 5	–
CC1CCC(C(=O)N(c2cc(-c3ccccc3)sc2C(=O)O)[C@H]2CC[C@@H](C(=O)O)CC2)CC1 (stereo partly shown) [Compound 78, 3-[(4-carboxy-cyclohexyl)-(4-methyl-cyclohexanecarbonyl)-amino]-5-phenyl-thiophene-2-carboxylic acid]	< 5	–
